# Test results taken from ChEMBL document CHEMBL1140397, “Discovery of 4-aryl-4H-chromenes as a new series of apoptosis inducers using a cell- and caspase-based high-throughput screening assay. 2. Structure-activity relationships of the 7- and 5-, 6-, 8-positions” (Bioorg Med Chem Lett, 2005).
# Assays:
# Format in all cases: functional
# T47D [1] = assay: Effective concentration against human breast cancer T47D cell line inducing apoptosis activity was measured by cell and caspase-based HTS assay
# NCI-H1299 [2] = assay: Effective concentration against human non-small cell lung cancer H1299 cells inducing apoptosis activity was measured by using cell and caspase-based HTS assay
# T47D [3] = assay: Ratio of inhibition of cell proliferation activity to that of caspase activation inducing apoptosis activity in human breast cancer T47D cell line
# T47D [4] = assay: Growth inhibitory activity against human breast cancer T47D cell line
# NCI-H1299 [5] = assay: Growth inhibitory activity against human non-small cell lung cancer H1299 cells
# T47D [6] = assay: Effective concentration against human breast cancer T47D cell line apoptosis inducing activity was measured by using cell and caspase-based HTS assay
# NCI-H1299 [7] = assay: Effective concentration against human non-small cell lung cancer H1299 cells inducing apoptosis, activity was measured by cell and caspase-based HTS assay
# Tubulin beta-4B chain = Tubulin beta-4B chain (Homo sapiens, UniProt P68371); assay: Inhibitory activity against tubulin using tubulin polymerization assay
# Chain of Tubulin beta-4B chain (P68371 whole entry): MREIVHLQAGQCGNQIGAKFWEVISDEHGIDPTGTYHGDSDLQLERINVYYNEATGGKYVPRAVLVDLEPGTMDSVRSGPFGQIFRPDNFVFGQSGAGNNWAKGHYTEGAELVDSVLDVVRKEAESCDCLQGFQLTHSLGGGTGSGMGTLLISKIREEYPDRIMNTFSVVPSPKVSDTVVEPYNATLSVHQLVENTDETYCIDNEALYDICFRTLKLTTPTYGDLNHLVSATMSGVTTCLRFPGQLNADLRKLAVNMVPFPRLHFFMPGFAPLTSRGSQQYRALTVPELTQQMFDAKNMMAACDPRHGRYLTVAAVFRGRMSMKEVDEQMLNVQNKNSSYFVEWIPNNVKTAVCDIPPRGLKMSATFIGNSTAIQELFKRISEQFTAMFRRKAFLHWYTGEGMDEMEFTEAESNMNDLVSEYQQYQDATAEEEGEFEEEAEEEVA
Structure (SMILES),EC50 (NCI-H1299 [2]) [nM],EC50 (T47D [6]) [nM],EC50 (NCI-H1299 [7]) [nM],other results
COc1cc(OC)c2c(c1)OC(N)=C(C#N)C2c1cc(OC)c2c(c1)OCO2 (stereo not given),> 10000,–,–,"EC50 (T47D [1]): > 10000 nM; GI50/EC50 (T47D [3]): 1; GI50 (T47D [4]): > 10000 nM; GI50 (NCI-H1299 [5]; Homo sapiens, NCI-H1299): > 10000 nM"
CCCCNc1ccc2c(c1)OC(N)=C(C#N)C2c1cccc(Cl)c1 (stereo not given),–,120,190,–
COc1ccc2c(c1)OC(N)=C(C#N)C2c1cc(Br)c(OC)c(OC)c1 (stereo not given),34,17,–,"GI50/EC50 (T47D [3]): 0.47; GI50 (T47D [4]): 8 nM; GI50 (NCI-H1299 [5]; Homo sapiens, NCI-H1299): 9 nM"
COc1ccc2c(c1)OC(N)=C(C#N)C2c1cccc(Br)c1 (stereo not given),–,52,95,–
COc1ccc2c(c1)OC(N)=C(C#N)C2c1cccc(Cl)c1 (stereo not given),–,80,160,–
COc1cc(OC)cc(C2C(C#N)=C(N)Oc3cc(OC)ccc32)c1 (stereo not given),–,15,32,–
COc1ccc2c(c1)OC(N)=C(C#N)C2c1cccc([N+](=O)[O-])c1 (stereo not given),–,89,170,–
CCNc1ccc2c(c1)OC(N)=C(C#N)C2c1cc(OC)c2c(c1)OCO2 (stereo not given),400,–,–,EC50 (T47D [1]): 330 nM
CCCCNc1ccc2c(c1)OC(N)=C(C#N)C2c1cccc([N+](=O)[O-])c1 (stereo not given),–,110,170,–
CCNc1cc2c(cc1C)C(c1cc(OC)c3c(c1)OCO3)C(C#N)=C(N)O2 (stereo not given),1400,–,–,EC50 (T47D [1]): 1100 nM
COc1cc(C2C(C#N)=C(N)Oc3cc(Cl)ccc32)cc(Br)c1OC (stereo not given),290,160,–,"GI50 (T47D [4]): 64 nM; GI50 (NCI-H1299 [5]; Homo sapiens, NCI-H1299): 55 nM"
CCOc1ccc2c(c1)OC(N)=C(C#N)C2c1cc(Br)c(OC)c(OC)c1 (stereo not given),–,64,92,–
COc1cc(C2C(C#N)=C(N)Oc3cc(N4CCOCC4)ccc32)cc2c1OCO2 (stereo not given),> 10000,–,–,EC50 (T47D [1]): > 10000 nM
COc1cc(C2C(C#N)=C(N)Oc3cc(O)ccc32)cc(Br)c1OC (stereo not given),–,130,210,"GI50/EC50 (T47D [3]): 6.1; GI50 (T47D [4]): 800 nM; GI50 (NCI-H1299 [5]; Homo sapiens, NCI-H1299): 190 nM"
COc1cc(C2C(C#N)=C(N)Oc3c2ccc(N)c3C)cc2c1OCO2 (stereo not given),770,310,–,"GI50 (NCI-H1299 [5]): 860 nM; GI50 (NCI-H1299 [5]; Homo sapiens, NCI-H1299): 490 nM"
N#CC1=C(N)Oc2c(ccc(N)c2N)C1c1cccc(Br)c1 (stereo not given),–,150,230,–
COc1cc(C2C(C#N)=C(N)Oc3c2ccc(O)c3O)cc(Br)c1OC (stereo not given),–,1700,2500,–
COc1ccc2c(c1)OC(N)=C(C#N)C2c1ccccc1 (stereo not given),–,360,520,–
COc1ccc2c(c1)OC(N)=C(C#N)C2c1cc(OC)c(OC)c(OC)c1 (stereo not given),–,26,57,–
COc1ccc2c(c1)OC(N)=C(C#N)C2c1cc(OC)c2c(c1)OCO2 (stereo not given),230,–,–,"EC50 (T47D [1]): 160 nM; GI50/EC50 (T47D [3]): 1.6; GI50 (T47D [4]): 260 nM; GI50 (NCI-H1299 [5]; Homo sapiens, NCI-H1299): 240 nM"
CCCCNc1ccc2c(c1)OC(N)=C(C#N)C2c1cc(OC)c(OC)c(OC)c1 (stereo not given),–,49,110,–
COc1ccc2c(c1)OC(N)=C(C#N)C2c1cccnc1 (stereo not given),–,170,290,–
N#CC1=C(N)Oc2c(ccc(N)c2N)C1c1cccc(C#N)c1 (stereo not given),–,390,460,–

Structure (SMILES),EC50 (NCI-H1299 [2]) [nM],EC50 (T47D [6]) [nM],EC50 (NCI-H1299 [7]) [nM],other results
COc1cc(C2C(C#N)=C(N)Oc3cc4c(cc32)OCO4)cc2c1OCO2 (stereo not given),270,210,–,–
COc1cc(C2C(C#N)=C(N)Oc3c2ccc(C)c3C)cc(Br)c1OC (stereo not given),–,42,87,–
COc1cc(C2C(C#N)=C(N)Oc3c2ccc(N)c3N)cc(Br)c1O (stereo not given),–,23,62,–
CCCCNc1ccc2c(c1)OC(N)=C(C#N)C2c1cc(OC)cc(OC)c1 (stereo not given),–,55,120,–
COc1cc(C2C(C#N)=C(N)Oc3c2ccc(N)c3N)cc(I)c1OC (stereo not given),–,49,100,–
COc1cc(C2C(C#N)=C(N)Oc3c2ccc(N)c3N)cc(Cl)c1OC (stereo not given),–,24,58,–
CCN(CC)c1ccc2c(c1)OC(N)=C(C#N)C2c1cc(OC)c2c(c1)OCO2 (stereo not given),530,–,–,EC50 (T47D [1]): 480 nM
COc1cc(C2C(C#N)=C(N)Oc3cc(O)ccc32)cc2c1OCO2 (stereo not given),5600,–,–,"EC50 (T47D [1]): 5800 nM; GI50/EC50 (T47D [3]): 1; GI50 (T47D [4]): 6080 nM; GI50 (NCI-H1299 [5]; Homo sapiens, NCI-H1299): 5500 nM"
CCCCNc1ccc2c(c1)OC(N)=C(C#N)C2c1cccc(OC)c1 (stereo not given),–,110,190,–
COc1cc(C2C(C#N)=C(N)Oc3cc(Br)ccc32)cc(Br)c1OC (stereo not given),–,140,280,–
COc1cc(C2C(C#N)=C(N)Oc3c2ccc(N)c3N)cc(Br)c1OC (stereo not given),–,34,81,"GI50/EC50 (T47D [3]): 4.4; GI50 (T47D [4]): 150 nM; GI50 (NCI-H1299 [5]; Homo sapiens, NCI-H1299): 31 nM"
COc1cc(OC)cc(C2C(C#N)=C(N)Oc3c2ccc(N)c3N)c1 (stereo not given),–,92,190,–
COc1cc2c(cc1OC)C(c1cc(OC)c3c(c1)OCO3)C(C#N)=C(N)O2 (stereo not given),> 10000,–,–,"EC50 (T47D [1]): > 10000 nM; GI50/EC50 (T47D [3]): 1; GI50 (T47D [4]): > 10000 nM; GI50 (NCI-H1299 [5]; Homo sapiens, NCI-H1299): > 10000 nM"
CCNc1ccc2c(c1)OC(N)=C(C#N)C2c1cc(Br)c(OC)c(OC)c1 (stereo not given),27,14,–,–
COc1cc(C2C(C#N)=C(N)Oc3cc(Nc4ccccc4)ccc32)cc2c1OCO2 (stereo not given),> 10000,–,–,EC50 (T47D [1]): > 10000 nM
COc1cccc(C2C(C#N)=C(N)Oc3cc(OC)ccc32)c1 (stereo not given),–,52,89,–
COc1cc(C2C(C#N)=C(N)Oc3cc(N(C)C)ccc32)cc2c1OCO2 (stereo not given),93,–,–,EC50 (T47D [1]): 730 nM
COc1cc(C2C(C#N)=C(N)Oc3cc(N)ccc32)cc2c1OCO2 (stereo not given),1700,–,–,"EC50 (T47D [1]): 1200 nM; GI50/EC50 (T47D [3]): 2.1; GI50 (T47D [4]): 2400 nM; GI50 (NCI-H1299 [5]; Homo sapiens, NCI-H1299): 1200 nM"
N#CC1=C(N)Oc2c(ccc(N)c2N)C1c1cccc([N+](=O)[O-])c1 (stereo not given),–,390,420,–
COc1cc(C2C(C#N)=C(N)Oc3c2ccc(O)c3N)cc(Br)c1OC (stereo not given),–,61,180,"GI50/EC50 (T47D [3]): 2; GI50 (T47D [4]): 120 nM; GI50 (NCI-H1299 [5]; Homo sapiens, NCI-H1299): 110 nM"
COc1cncc(C2C(C#N)=C(N)Oc3cc(OC)ccc32)c1 (stereo not given),–,47,100,"GI50/EC50 (T47D [3]): 1.4; GI50 (T47D [4]): 65 nM; GI50 (NCI-H1299 [5]; Homo sapiens, NCI-H1299): 72 nM"
COc1cc(C2C(C#N)=C(N)Oc3cc(N)ccc32)cc(Br)c1OC (stereo not given),67,33,–,"IC50 (Tubulin beta-4B chain): < 500 nM; GI50/EC50 (T47D [3]): 2.3; GI50 (T47D [4]): 77 nM; GI50 (NCI-H1299 [5]; Homo sapiens, NCI-H1299): 76 nM"
COc1cc(C2C(C#N)=C(N)Oc3c2ccc(N)c3C)cc(Br)c1OC (stereo not given),–,26,53,–
